Laboratory results published in article PMC2151519 (The Journal of General Physiology, 2006).

Columns and labels:
Test in all cases: whole-cell patch clamp, outward current, CHO-K1
Assay type in all cases: cell-based
[1] = target: TRPM6 (Homo sapiens, UniProt Q9BX84)
[2] = target: TRPM7 (Mus musculus, UniProt Q923J1)
[3] = target: TRPM6/7 (Homo sapiens; Mus musculus, UniProt Q923J1+Q9BX84)
Chain of TRPM6/7 (Q9BX84 whole entry): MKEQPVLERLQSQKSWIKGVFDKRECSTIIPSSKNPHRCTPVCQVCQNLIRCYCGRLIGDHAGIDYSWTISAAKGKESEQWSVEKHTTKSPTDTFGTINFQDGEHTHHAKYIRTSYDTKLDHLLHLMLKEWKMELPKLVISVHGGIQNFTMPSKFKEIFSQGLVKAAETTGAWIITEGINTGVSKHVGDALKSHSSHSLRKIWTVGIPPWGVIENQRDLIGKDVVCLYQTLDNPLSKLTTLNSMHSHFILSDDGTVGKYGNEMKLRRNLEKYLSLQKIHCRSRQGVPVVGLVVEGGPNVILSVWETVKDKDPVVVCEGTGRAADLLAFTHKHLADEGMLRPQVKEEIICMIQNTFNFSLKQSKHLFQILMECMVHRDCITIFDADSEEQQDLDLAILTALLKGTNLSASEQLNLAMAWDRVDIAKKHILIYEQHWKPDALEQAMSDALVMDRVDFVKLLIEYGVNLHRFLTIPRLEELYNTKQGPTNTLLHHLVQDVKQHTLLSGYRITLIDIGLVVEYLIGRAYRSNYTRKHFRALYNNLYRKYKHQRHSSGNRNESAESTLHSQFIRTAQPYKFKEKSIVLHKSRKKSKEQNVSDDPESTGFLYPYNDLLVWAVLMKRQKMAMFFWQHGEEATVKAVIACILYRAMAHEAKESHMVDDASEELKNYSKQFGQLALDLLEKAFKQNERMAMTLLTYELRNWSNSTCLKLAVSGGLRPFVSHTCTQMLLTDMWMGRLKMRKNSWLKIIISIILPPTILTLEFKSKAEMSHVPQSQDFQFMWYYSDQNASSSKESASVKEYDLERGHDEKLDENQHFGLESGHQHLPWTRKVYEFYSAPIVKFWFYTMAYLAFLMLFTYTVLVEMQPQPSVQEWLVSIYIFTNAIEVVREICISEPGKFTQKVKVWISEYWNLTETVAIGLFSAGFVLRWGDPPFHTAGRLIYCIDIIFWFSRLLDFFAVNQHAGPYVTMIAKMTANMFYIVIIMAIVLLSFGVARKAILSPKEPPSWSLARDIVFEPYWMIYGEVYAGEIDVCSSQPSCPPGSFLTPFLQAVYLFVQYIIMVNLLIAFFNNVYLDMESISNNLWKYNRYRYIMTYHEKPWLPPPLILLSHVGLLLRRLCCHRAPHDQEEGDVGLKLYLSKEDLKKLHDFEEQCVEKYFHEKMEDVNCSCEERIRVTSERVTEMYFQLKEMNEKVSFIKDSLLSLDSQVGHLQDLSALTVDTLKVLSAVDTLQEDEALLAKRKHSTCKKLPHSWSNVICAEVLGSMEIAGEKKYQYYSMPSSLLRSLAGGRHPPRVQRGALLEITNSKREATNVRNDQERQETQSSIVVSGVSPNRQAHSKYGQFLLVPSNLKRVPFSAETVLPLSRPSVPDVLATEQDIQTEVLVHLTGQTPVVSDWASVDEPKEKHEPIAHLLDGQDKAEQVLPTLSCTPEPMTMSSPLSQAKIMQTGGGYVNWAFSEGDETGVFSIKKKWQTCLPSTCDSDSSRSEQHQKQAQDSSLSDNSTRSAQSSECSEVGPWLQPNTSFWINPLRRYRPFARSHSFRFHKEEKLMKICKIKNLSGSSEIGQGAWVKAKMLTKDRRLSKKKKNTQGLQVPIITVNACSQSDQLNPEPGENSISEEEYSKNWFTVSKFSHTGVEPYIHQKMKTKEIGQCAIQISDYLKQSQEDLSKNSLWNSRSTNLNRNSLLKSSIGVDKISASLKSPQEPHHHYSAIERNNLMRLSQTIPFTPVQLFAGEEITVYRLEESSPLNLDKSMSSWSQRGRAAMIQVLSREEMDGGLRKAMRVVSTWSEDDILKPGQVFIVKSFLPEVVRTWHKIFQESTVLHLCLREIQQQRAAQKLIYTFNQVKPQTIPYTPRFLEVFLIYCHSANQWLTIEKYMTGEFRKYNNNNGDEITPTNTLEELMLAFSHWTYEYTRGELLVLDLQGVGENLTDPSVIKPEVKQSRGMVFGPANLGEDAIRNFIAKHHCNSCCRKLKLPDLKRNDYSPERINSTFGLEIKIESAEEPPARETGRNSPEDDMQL
Chain of TRPM6/7 (Q923J1 whole entry): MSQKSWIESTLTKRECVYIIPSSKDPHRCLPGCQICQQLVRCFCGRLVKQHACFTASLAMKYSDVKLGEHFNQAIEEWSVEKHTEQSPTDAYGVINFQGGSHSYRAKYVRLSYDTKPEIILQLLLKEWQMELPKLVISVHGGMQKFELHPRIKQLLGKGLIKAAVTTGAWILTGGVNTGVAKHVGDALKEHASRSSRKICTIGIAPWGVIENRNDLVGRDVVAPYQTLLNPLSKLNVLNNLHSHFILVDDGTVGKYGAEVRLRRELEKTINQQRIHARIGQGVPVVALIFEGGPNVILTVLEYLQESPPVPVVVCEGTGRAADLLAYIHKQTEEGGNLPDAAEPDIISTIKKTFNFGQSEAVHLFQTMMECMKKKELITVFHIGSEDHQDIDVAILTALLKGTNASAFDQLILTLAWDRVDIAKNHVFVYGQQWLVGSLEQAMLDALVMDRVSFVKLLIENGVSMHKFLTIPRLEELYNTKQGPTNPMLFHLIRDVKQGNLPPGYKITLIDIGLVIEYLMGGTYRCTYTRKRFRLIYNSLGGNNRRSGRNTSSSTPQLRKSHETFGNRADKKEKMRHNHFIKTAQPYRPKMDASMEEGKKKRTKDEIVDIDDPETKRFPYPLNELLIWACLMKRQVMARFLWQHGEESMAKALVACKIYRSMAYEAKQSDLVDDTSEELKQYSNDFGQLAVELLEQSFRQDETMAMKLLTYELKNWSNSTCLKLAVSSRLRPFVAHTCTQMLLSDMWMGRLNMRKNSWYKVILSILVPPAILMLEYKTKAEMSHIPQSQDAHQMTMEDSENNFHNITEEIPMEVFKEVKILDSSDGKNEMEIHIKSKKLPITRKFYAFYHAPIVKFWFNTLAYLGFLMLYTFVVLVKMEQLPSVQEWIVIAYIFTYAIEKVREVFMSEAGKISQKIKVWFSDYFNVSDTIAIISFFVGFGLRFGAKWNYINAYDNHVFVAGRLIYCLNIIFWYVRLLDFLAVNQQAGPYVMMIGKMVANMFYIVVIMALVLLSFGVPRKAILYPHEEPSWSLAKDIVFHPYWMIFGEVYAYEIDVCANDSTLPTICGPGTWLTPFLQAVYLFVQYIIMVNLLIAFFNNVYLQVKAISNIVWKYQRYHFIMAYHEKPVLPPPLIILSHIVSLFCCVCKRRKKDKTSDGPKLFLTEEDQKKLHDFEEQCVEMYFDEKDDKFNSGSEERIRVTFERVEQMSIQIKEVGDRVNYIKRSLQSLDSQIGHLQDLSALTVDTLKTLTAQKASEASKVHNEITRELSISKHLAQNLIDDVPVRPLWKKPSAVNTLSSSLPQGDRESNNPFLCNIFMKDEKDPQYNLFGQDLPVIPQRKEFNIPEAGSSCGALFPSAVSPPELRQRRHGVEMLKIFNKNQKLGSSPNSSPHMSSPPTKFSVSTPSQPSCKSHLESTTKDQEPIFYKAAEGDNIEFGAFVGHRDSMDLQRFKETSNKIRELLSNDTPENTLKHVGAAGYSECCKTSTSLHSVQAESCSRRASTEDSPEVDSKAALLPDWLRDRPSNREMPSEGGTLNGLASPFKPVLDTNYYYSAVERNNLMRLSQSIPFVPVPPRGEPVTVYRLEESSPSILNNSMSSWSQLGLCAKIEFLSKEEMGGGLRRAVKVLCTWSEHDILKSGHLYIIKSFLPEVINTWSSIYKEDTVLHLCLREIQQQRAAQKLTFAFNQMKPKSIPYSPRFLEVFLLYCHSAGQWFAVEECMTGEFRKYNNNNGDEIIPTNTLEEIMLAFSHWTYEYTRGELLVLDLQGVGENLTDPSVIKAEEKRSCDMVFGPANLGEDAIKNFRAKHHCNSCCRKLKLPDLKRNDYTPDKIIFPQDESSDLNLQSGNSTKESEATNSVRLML

Chain of TRPM7 (Q923J1 whole entry): as above
Chain of TRPM6 (Q9BX84 whole entry): as the sequence (Q9BX84 whole entry) above

- EC50 [1]: 205 ± 10 µM
- IC50 [2]: 178 ± 14 µM
- EC50 [3]: 1600 ± 100 µM
SMILES: NCCOB(c1ccccc1)c1ccccc1 [2-APB]
